The text below walks through data of ChEMBL document CHEMBL2424652, “Synthesis, characterization, and antimicrobial evaluation of novel trichalcones containing core s-triazine moiety” (2013).

What all share (assay type): functional
For one assay, the system named is Proteus vulgaris. The assay can be described thus: Antibacterial activity against Proteus vulgaris at 200 ug/mL after 24 hrs by disc diffusion method. Conditions: read-out: DIZ. A general note: A growth-free zone around the sample is the usual read-out of agar diffusion tests.
The nature of assay [1]: Antibacterial activity against Xanthomonas citri at 200 ug/mL after 24 hrs by disc diffusion method. Conditions: read-out: DIZ.
The subject of the next assay is Curvularia. The assay can be described thus: Antifungal activity against Curvularia lunata at 200 ug/mL after 48 hrs by disc diffusion method. Conditions: for zone of inhibition at 200 µg/mL: read-out: DIZ.
The subject of another assay is Alternaria. The assay can be described thus: Antifungal activity against Alternaria at 200 ug/mL after 48 hrs by disc diffusion method. As to conditions: for zone of inhibition at 200 µg/mL: read-out: DIZ.
Another assay concerns Staphylococcus aureus. The experiment in a line: Antibacterial activity against Staphylococcus aureus at 200 ug/mL after 24 hrs by disc diffusion method. As to conditions: read-out: DIZ.
For assay [2], the system named is Pectobacterium carotovorum. The experiment in a line: Antibacterial activity against Erwinia carotovora at 200 ug/mL after 24 hrs by disc diffusion method. Conditions: read-out: DIZ.

`O=C(/C=C/c1ccc(Oc2nc(Oc3ccc(/C=C/C(=O)c4ccccc4)cc3)nc(Oc3ccc(/C=C/C(=O)c4ccccc4)cc3)n2)cc1)c1ccccc1`: the zone of inhibition at 200 µg/mL in the assay with Proteus vulgaris came out at 7.83 mm; in assay [1], 6.96 mm; with Curvularia, 6.16 mm; with Alternaria it was 5.1 mm; with Staphylococcus aureus it was 10 mm; in assay [2], 7.93 mm.

For NYSTATIN, the inhibition zone (IZ) in the assay with Curvularia and with Alternaria was 15 mm throughout.

As for `COc1cc(C(=O)/C=C/c2ccc(Oc3nc(Oc4ccc(/C=C/C(=O)c5cc(OC)c(OC)c(OC)c5)cc4)nc(Oc4ccc(/C=C/C(=O)c5cc(OC)c(OC)c(OC)c5)cc4)n3)cc2)cc(OC)c1OC`, the zone of inhibition at 200 µg/mL in the assay with Proteus vulgaris is 11.1 mm; in assay [1], 10.1 mm; in the assay with Curvularia, 14.1 mm; in the assay with Alternaria it was 13.2 mm; in the assay with Staphylococcus aureus, 13 mm; in assay [2], 12.3 mm.

`CC1(C)S[C@@H]2[C@H](NC(=O)Cc3ccccc3)C(=O)N2[C@H]1C(=O)O` [PENICILLIN G]: the zone of inhibition at 200 µg/mL (in the assay on Proteus vulgaris; in assay [1]; with Staphylococcus aureus; in assay [2]) was 15 mm throughout.

Consider `COc1ccc(C(=O)/C=C/c2ccc(Oc3nc(Oc4ccc(/C=C/C(=O)c5ccc(OC)cc5)cc4)nc(Oc4ccc(/C=C/C(=O)c5ccc(OC)cc5)cc4)n3)cc2)cc1`, for which the zone of inhibition at 200 µg/mL with Proteus vulgaris came out at 6.96 mm; in assay [1] it was 8.86 mm; in the assay on Curvularia it was 13.2 mm; with Alternaria, 10.2 mm; with Staphylococcus aureus, 7.86 mm; in assay [2] it was 8.06 mm.

With `O=C(/C=C/c1ccc(Oc2nc(Oc3ccc(/C=C/C(=O)c4ccc(Br)cc4)cc3)nc(Oc3ccc(/C=C/C(=O)c4ccc(Br)cc4)cc3)n2)cc1)c1ccc(Br)cc1`, the zone of inhibition at 200 µg/mL was 11.9 mm with Proteus vulgaris; 11.1 mm in assay [1]; 10.1 mm with Curvularia; 6.16 mm with Alternaria; 9.96 mm with Staphylococcus aureus; 13 mm in assay [2].

For `COc1ccc(OC)c(C(=O)/C=C/c2ccc(Oc3nc(Oc4ccc(/C=C/C(=O)c5cc(OC)ccc5OC)cc4)nc(Oc4ccc(/C=C/C(=O)c5cc(OC)ccc5OC)cc4)n3)cc2)c1`, the zone of inhibition at 200 µg/mL in the assay with Proteus vulgaris worked out at 7.86 mm; in assay [1] it was 10 mm; in the assay on Curvularia, 12.2 mm; in the assay with Alternaria, 12.2 mm; with Staphylococcus aureus, 9.1 mm; in assay [2], 9.1 mm.

With `COc1ccc(C(=O)/C=C/c2ccc(Oc3nc(Oc4ccc(/C=C/C(=O)c5ccc(OC)c(OC)c5)cc4)nc(Oc4ccc(/C=C/C(=O)c5ccc(OC)c(OC)c5)cc4)n3)cc2)cc1OC`, the zone of inhibition at 200 µg/mL in the assay with Proteus vulgaris is 12.3 mm; in assay [1] it was 11.1 mm; in the assay with Curvularia, 12.1 mm; with Alternaria, 12.1 mm; with Staphylococcus aureus, 9.9 mm; in assay [2], 12.2 mm.

In the case of `O=C(/C=C/c1ccc(Oc2nc(Oc3ccc(/C=C/C(=O)c4ccc([N+](=O)[O-])cc4)cc3)nc(Oc3ccc(/C=C/C(=O)c4ccc([N+](=O)[O-])cc4)cc3)n2)cc1)c1ccc([N+](=O)[O-])cc1`, the zone of inhibition at 200 µg/mL worked out at 5.9 mm with Proteus vulgaris; 6.1 mm in assay [1]; 8.2 mm in the assay with Curvularia; 7 mm in the assay on Alternaria; 4.93 mm in the assay with Staphylococcus aureus; 6.96 mm in assay [2].

For `O=C(/C=C/c1ccc(Oc2nc(Oc3ccc(/C=C/C(=O)c4ccc(Cl)cc4)cc3)nc(Oc3ccc(/C=C/C(=O)c4ccc(Cl)cc4)cc3)n2)cc1)c1ccc(Cl)cc1`, the zone of inhibition at 200 µg/mL in the assay on Proteus vulgaris came out at 14 mm; in assay [1] it was 10.1 mm; in the assay on Curvularia, 7.2 mm; in the assay with Alternaria, 8.03 mm; with Staphylococcus aureus it was 12.1 mm; in assay [2], 8.06 mm.

As for `Cc1ccc(C(=O)/C=C/c2ccc(Oc3nc(Oc4ccc(/C=C/C(=O)c5ccc(C)cc5)cc4)nc(Oc4ccc(/C=C/C(=O)c5ccc(C)cc5)cc4)n3)cc2)cc1`, the zone of inhibition at 200 µg/mL with Proteus vulgaris stood at 10 mm; in assay [1], 10.1 mm; with Curvularia it was 6.96 mm; in the assay with Alternaria it was 5.16 mm; with Staphylococcus aureus, 7.93 mm; in assay [2], 8.03 mm.

Regarding `O=C(/C=C/c1ccc(Oc2nc(Oc3ccc(/C=C/C(=O)c4cccc([N+](=O)[O-])c4)cc3)nc(Oc3ccc(/C=C/C(=O)c4cccc([N+](=O)[O-])c4)cc3)n2)cc1)c1cccc([N+](=O)[O-])c1`, the zone of inhibition at 200 µg/mL in the assay on Proteus vulgaris amounted to 10 mm; in assay [1], 7.96 mm; in the assay on Curvularia, 6.96 mm; with Alternaria, 7.96 mm; with Staphylococcus aureus, 7.13 mm; in assay [2], 6 mm.
